In patent publication US11807649B2, “Fused tetracyclic quinazoline derivatives as inhibitors of ErbB2” (EnLiven Therapeutics, Inc., priority 2021, dated 2023):
Like-named read-outs stand apart in the source and are kept apart here.

Assays:
Assay type in all cases: cell-based
Ba/F3 ERBB2 YVMA = assay: Cell viability assay (CellTiter Glo), Ba/F3 cells engineered to express ERBB2 YVMA; details: Mus musculus, BaF3, 72 h
Description: Cells were treated with compounds, and cell viability was measured as a metric of kinase inhibition.
BT-474, A431, MDA-MB-175VII, NCI-H1781, MCF7, and Ba/F3 cell lines were tested. The Ba/F3 cell line is IL-3-dependent mouse cell line derived from the C3H mouse strain. Ba/F3 cell lines were engineered to express human ERBB2 or EGFR kinases, rendering the cells IL-3 independent. The lines were generated via retroviral transduction utilizing a Moloney murine leukemia virus (MMLV) promoter, and constructs are stably integrated into the cell genome. The sequences of the ERBB2 and EGFR genes used were NCBI Reference Sequences NM 004448.3 and NM 005228.3, respectively.
BT-474, A431, MDA-MB-175VII, NCI-H1781 and MCF7 cells were grown in the appropriate growth medium as described in Table B2 below, and harvested at 50-80% confluence. BT-474, A431, MDA-MB-175VII, NCI-H1781 and MCF7 cells were counted and seeded at 2,000 or 1,500 cells per well in 384-well tissue culture plates (see Table B2). Similarly, Ba/F3 cell lines engineered to express EGFR, ERBB2, or ERBB2 mutants were grown, harvested, counted and seeded at 3000 cells per well in 96-well plates. A subset of wells contained media only (low control, “LC”).
Table B1 provides the growth media and number of cells seeded per well for the each cell line.
Compounds were dissolved in DMSO and serially diluted. Serially-diluted compound or a DMSO only control (high control, “HC”) was added to the plated cells in each well. Compounds were tested at concentrations of about 10 μM to 0.51 nM, using three-fold dilutions. The final proportion of DMSO never exceeded 0.1%.
Plates were placed in a 37° C., 5% CO2 incubator for 72 hours. Plates were then removed from the incubator and equilibrated for 15 minutes at room temperature. […] of CellTiter Glo reagent (Promega) was added to measure the relative level of metabolically active cells by quantifying intracellular ATP concentrations. Plates were incubated for 30 minutes at room temperature, and luminescence was measured. Percent viability was normalized to a vehicle control only using the following formula: % viability=100×(Lumsample−LumLC)/(LumHC−LumLC). Graphical curves were fitted using a nonlinear regression model with a sigmoidal dose response.

[1] = biological target: phosphorylated EGFR (pEGFR) (Homo sapiens (Human), UniProt P00533); assay: Detection of phosphorylated EGFR (pEGFR) in EGF-stimulated A431 cells (AlphaLISA); details: A431 cells (10% FBS), 4 hours incubation, then EGF 30 ng/mL for 10 minutes
Description: […] were performed to measure phosphorylated EGFR levels using A431 cells (10% FBS). A431 (1.0*10^4 cells/40 μl/well) cells were seeded in 384 well. Compounds were dissolved in DMSO, serially diluted in DMSO and then were added, mixed, and incubated for 4 hours at 37° C., 5% CO2. Following the 4-hours incubation, cells were stimulated for 10 minutes with EGF (Invitrogen, cat #PHG0311) at a final concentration of 30 ng/mL in the incubator. The media was aspirated and cells were lysed in […] lysis buffer with protease and phosphatase inhibitors (PerkinElmer, cat #ALSU-PEGFR-A50K). The plates were placed on a shaker for 5 minutes and then incubated for 30 min at 4° C. for complete lysis. The lysate was transferred to an Optiplate (Perkin Elmer, cat #6007290).
Acceptor mix (PerkinElmer, cat #ALSU-PEGFR-A50K) was prepared just before use and 5 μL was dispensed to all the wells, followed by a 1.5-2 h incubation at room temperature in dark. The donor mix (PerkinElmer, cat #ALSU-PEGFR-A50K) was prepared under low light conditions prior to use and […] of donor mix was added to all the wells under subdued lighting or green filters. The plates were placed on a shaker for 5 min, sealed, and incubated overnight at room temperature in dark. Plates were read on the Envision (PerkinElmer) using standard AlphaLISA settings.
The percentage of inhibition on EGFR phosphorylation was calculated following equation: % Inhibition=100×(LumHC−LumSample)/(LumHC−LumLC). The low and high controls (LC/HC) are generated from lysate from wells with cells treated with DMSO or […] Staurosporine (BioAustralis, cat #BIA-S1086), […]. IC50 values were calculated by fitting the Curve using XLfit (v5.3.1.3), equation 201: Y=Bottom+(Top−Bottom)/(1+10^((Log IC50−X)*HillSlope)).

[2] = biological target: phosphorylated ERBB2 (pERBB2) (Homo sapiens (Human), UniProt P04626); assay: Detection of phosphorylated ERBB2 (pERBB2) by ELISA in BT-474 cells; details: four hours incubation with compound
Description: BT-474 cells were seeded into a 96-well at 2.0*10^4 cells/100 μl/well. Compounds were dissolved and serially diluted in DMSO. The compounds were then were added, mixed, and incubated for four hours at 37° C., 5% CO2. […] Following the four hour incubation with compounds, cell lysates were prepared. Plates were centrifuged for 5 min at 3000 RPM, and supernatant was removed from each well. Cells were washed 3 times by resuspension in 150 μl PBS, followed by centrifugation and removal of the supernatant, as above. 100 μl of cell lysis buffer (Boston BioProducts, cat #BP-115D) supplied with 1× complete ULTRA cocktail inhibitor (Thermo ScientificTM, cat #78443) was then added to the washed cells. Cells were incubated with lysis buffer for 1 hour at 4° C., and then stored at -80° C. Enzyme-linked immunosorbent assays (ELISA) were performed to measure phosphorylated ERBB2 levels. […] The next day, plates were washed with PBS+0.05% Tween20 (PBST). 150 μl of 5% BSA blocking solution was added for 1 hour at room temperature, with shaking. Plates were washed with PB ST. Cell lysates were thawed and 100 μl of lysate was added to the ELISA plate. The plates were incubated for 2 hours at room temperature, with shaking. ELISA plates were then washed with PBST and 100 μl of an HRP-labeled detection antibody that binds phosphorylated tyrosine (R&D Systems, cat #841913) was added to each well. Plates were incubated for 1 hour at room temperature, with shaking. Plates were then washed with PBST, and 100 μl TMB substrate solution (R&D Systems, cat #DY999) was added. Plate were incubated in the dark for 20 minutes at room temperature. 50 μl of Stop solution (R&D Systems, cat #DY994) (50 μl) was added to each well and mixed. […] The remaining kinase activity by calculated using the following formula: % Relative activity=100×([…]). The low and high control values (“LC” and “HC”) were generated from lysate from wells without cells or with cells treated with 0.1% DMSO, respectively.

[3] = Ba/F3 cells expressing human ERBB2 YVMA mutant, 72 hours, cell viability, CellTiter Glo, read-out: Ba/F3 ERBB2 YVMA, IC50
[4] = read-out: Ba/F3 ERBB2 YVMA, IC50, nM

Chain of phosphorylated EGFR (pEGFR) (P00533 25-1210): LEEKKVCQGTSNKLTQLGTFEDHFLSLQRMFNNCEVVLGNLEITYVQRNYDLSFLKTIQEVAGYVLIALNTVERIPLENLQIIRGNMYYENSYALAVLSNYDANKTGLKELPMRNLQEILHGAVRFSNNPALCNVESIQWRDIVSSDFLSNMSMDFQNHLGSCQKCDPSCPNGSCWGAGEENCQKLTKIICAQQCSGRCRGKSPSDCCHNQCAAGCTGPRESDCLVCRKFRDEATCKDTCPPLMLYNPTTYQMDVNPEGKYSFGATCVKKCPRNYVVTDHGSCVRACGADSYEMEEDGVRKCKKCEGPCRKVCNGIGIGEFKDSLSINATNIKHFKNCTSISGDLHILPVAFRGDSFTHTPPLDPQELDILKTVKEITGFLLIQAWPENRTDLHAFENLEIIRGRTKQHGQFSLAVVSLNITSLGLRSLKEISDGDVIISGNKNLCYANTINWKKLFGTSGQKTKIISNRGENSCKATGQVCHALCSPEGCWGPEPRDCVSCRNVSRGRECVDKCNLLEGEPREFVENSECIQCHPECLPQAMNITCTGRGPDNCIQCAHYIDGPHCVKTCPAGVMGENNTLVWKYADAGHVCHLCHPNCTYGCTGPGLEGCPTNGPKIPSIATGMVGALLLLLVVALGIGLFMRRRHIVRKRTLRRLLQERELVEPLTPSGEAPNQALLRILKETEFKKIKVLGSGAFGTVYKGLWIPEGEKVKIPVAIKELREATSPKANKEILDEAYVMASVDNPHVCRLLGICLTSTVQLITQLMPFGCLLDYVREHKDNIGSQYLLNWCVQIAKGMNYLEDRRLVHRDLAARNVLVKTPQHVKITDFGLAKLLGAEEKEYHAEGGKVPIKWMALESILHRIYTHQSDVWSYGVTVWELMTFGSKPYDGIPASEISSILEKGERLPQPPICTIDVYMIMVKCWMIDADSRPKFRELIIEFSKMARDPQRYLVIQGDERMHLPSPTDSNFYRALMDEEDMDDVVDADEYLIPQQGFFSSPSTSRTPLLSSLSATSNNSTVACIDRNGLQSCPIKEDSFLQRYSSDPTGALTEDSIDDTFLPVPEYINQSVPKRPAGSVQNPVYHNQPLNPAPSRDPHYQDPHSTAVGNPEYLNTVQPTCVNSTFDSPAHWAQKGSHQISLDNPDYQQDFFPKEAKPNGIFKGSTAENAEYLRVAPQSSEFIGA
Chain of phosphorylated ERBB2 (pERBB2) (P04626 23-1255): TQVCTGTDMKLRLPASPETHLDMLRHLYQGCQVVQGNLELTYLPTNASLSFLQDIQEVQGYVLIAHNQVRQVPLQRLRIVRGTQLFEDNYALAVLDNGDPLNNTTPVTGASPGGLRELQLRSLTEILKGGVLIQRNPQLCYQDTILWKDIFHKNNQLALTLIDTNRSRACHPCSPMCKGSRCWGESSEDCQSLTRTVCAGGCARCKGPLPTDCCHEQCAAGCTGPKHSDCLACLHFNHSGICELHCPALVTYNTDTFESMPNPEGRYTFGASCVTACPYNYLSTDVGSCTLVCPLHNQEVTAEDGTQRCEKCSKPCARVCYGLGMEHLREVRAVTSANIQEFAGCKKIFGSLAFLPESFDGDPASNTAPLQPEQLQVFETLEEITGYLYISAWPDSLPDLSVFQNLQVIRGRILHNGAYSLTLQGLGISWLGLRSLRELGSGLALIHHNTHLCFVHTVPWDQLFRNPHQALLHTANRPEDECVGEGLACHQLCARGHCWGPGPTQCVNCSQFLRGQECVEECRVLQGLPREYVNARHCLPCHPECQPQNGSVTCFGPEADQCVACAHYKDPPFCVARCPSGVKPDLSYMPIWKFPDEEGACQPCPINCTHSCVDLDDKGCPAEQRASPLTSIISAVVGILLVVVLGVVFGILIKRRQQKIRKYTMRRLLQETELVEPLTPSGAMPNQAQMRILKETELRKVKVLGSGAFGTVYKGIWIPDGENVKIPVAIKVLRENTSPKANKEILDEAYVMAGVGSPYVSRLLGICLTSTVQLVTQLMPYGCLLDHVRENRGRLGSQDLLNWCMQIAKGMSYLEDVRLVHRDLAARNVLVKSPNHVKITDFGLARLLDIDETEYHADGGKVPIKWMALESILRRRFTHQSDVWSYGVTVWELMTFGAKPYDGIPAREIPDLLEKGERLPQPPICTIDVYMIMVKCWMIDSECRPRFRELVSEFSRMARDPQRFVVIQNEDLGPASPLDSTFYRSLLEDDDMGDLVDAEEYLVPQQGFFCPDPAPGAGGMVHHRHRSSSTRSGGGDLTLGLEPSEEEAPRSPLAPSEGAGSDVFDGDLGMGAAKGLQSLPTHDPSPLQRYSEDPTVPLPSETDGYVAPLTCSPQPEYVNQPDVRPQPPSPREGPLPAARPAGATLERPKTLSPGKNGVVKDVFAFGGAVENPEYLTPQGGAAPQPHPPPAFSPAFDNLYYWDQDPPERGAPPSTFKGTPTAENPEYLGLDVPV

Compound | IC50 (Ba/F3 ERBB2 YVMA; [3]) | IC50 [1] | IC50 [2] | IC50 (Ba/F3 ERBB2 YVMA; [4])
[2H]C([2H])([2H])N(C([2H])([2H])[2H])C([2H])([2H])/C=C/C(=O)N1CCN2C[C@H]1COc1cc3ncnc(Nc4cc(C)c(Oc5ccn6ncnc6c5)cc4F)c3nc12 [Compound 59, (E)-1-((10S)-4-((4-([1,2,4]triazolo[1,5-a]pyridin-7-yloxy)-2-fluoro-5-methylphenyl)amino)-7,8,10,11-tetrahydro-9H-6,10-methanopyrimido[4′,5′:5,6]pyrido[3,2-b][1,4,7]oxadiazonin-9-yl)-4-(bis(methyl-d3)amino)but-2-en-1-one-4,4-d2] | 6.5 nM | 1380 nM | 9 nM | 
[2H]C([2H])(/C=C/C(=O)N1CCN2C[C@H]1COc1cc3ncnc(Nc4cc(C)c(Oc5ccn6ncnc6c5)cc4F)c3nc12)N(C)C [Compound 58, (E)-1-((10S)-4-((4-([1,2,4]triazolo[1,5-a]pyridin-7-yloxy)-2-fluoro-5-methylphenyl)amino)-7,8,10,11-tetrahydro-9H-6,10-methanopyrimido[4′,5′:5,6]pyrido[3,2-b][1,4,7]oxadiazonin-9-yl)-4-(dimethylamino)but-2-en-1-one-4,4-d2] | 7.79 nM | 869 nM | 5.5 nM | 
[2H]C([2H])([2H])N(C/C=C/C(=O)N1CCN2C[C@H]1COc1cc3ncnc(Nc4ccc(Oc5ccn6ncnc6c5)c(C)c4)c3nc12)C([2H])([2H])[2H] [Compound 36, (E)-1-((10S)-4-((4-([1,2,4]triazolo[1,5-a]pyridin-7-yloxy)-3-methylphenyl)amino)-7,8,10,11-tetrahydro-9H-6,10-methanopyrimido[4′,5′:5,6]pyrido[3,2-b][1,4,7]oxadiazonin-9-yl)-4-(bis(methyl-d3)amino)but-2-en-1-one formic acid] |  | 1620 nM | 9.92 nM | 6.19 nM
C=CC(=O)N1CCN2C[C@H]1COc1cc3ncnc(Nc4ccc(Cc5ccn6ncnc6c5)c(C)c4)c3nc12 [Compound 13, 1-((10S)-4-((4-([1,2,4]triazolo[1,5-a]pyridin-7-ylmethyl)-3-methylphenyl)amino)-7,8,10,11-tetrahydro-9H-6,10-methanopyrimido[4′,5′:5,6]pyrido[3,2-b][1,4,7]oxadiazonin-9-yl)prop-2-en-1-one] |  | 1580 nM | 15.8 nM | 8.92 nM
Cc1cc(Nc2ncnc3cc4c(nc23)N2CCCN(C(=O)/C=C/CN(C)C)C(CO4)C2)ccc1Oc1ccn2ncnc2c1 (single isomer, unassigned) [Example S55, Enantiomer 1, (E)-1-(4-((4-([1,2,4]triazolo[1,5-a]pyridin-7-yloxy)-3-methylphenyl)amino)-8,9,11,12-tetrahydro-6,11-methanopyrimido[4′,5′:5,6]pyrido[3,2-b][1,4,8]oxadiazecin-10(7H)-yl)-4-(dimethylamino)but-2-en-1-one] |  |  | 17.4 nM | 
C=CC(=O)N1CCN2C[C@@H]1COc1cc3ncnc(Nc4ccc(Cc5ccn6ncnc6c5)c(C)c4)c3nc12 [Compound 19] |  | > 10000 nM |  | > 500 nM
CCOc1cc2ncc(C#N)c(Nc3ccc(OCc4ccccn4)c(Cl)c3)c2cc1NC(=O)/C=C/CN(C)C [Neratinib, neratinib, reference compound] |  |  |  | 3.5 nM
Cc1cc(Nc2ncnc3cc4c(nc23)N2CCCN(C(=O)/C=C/CN(C)C)C(CO4)C2)ccc1Oc1ccn2ncnc2c1 (single isomer, unassigned) [Example S55, Enantiomer 2, (E)-1-(4-((4-([1,2,4]triazolo[1,5-a]pyridin-7-yloxy)-3-methylphenyl)amino)-8,9,11,12-tetrahydro-6,11-methanopyrimido[4′,5′:5,6]pyrido[3,2-b][1,4,8]oxadiazecin-10(7H)-yl)-4-(dimethylamino)but-2-en-1-one] |  |  | 304 nM | 
